Results from ChEMBL document CHEMBL3526024, “Oral availability of cefadroxil depends on ABCC3 and ABCC4” (Drug Metab Dispos, 2012).
One block for each compound: values may come before it.

Legend:
[1] = molecular target: ATP-binding cassette sub-family C member 2 (Homo sapiens, UniProt Q92887); assay: Inhibition of recombinant human ABCC2 expressed in insect Sf21 cell plasma membrane vesicles assessed as inhibition of transporter-mediated [3H]-estradiol-17beta-glucuronide uptake by liquid scintillation counting analysis; type: ADME, cell membranes
[2] = molecular target: T1, ATP-binding cassette sub-family C member 3 (Homo sapiens, UniProt O15438); assay: Inhibition of recombinant human ABCC3 expressed in baculovirus infected insect Sf21 cell plasma membrane vesicles assessed as inhibition of transporter-mediated [3H]-estradiol-17beta-glucuronide uptake by liquid scintillation counting analysis; type: ADME
[3] = molecular target: T2, ATP-binding cassette sub-family C member 4 (Homo sapiens, UniProt O15439); assay: Inhibition of recombinant human ABCC4 expressed in baculovirus infected insect Sf21 cell plasma membrane vesicles assessed as inhibition of transporter-mediated [3H]-estradiol-17beta-glucuronide uptake by liquid scintillation counting analysis; type: ADME
T2 sequence (O15439 whole entry): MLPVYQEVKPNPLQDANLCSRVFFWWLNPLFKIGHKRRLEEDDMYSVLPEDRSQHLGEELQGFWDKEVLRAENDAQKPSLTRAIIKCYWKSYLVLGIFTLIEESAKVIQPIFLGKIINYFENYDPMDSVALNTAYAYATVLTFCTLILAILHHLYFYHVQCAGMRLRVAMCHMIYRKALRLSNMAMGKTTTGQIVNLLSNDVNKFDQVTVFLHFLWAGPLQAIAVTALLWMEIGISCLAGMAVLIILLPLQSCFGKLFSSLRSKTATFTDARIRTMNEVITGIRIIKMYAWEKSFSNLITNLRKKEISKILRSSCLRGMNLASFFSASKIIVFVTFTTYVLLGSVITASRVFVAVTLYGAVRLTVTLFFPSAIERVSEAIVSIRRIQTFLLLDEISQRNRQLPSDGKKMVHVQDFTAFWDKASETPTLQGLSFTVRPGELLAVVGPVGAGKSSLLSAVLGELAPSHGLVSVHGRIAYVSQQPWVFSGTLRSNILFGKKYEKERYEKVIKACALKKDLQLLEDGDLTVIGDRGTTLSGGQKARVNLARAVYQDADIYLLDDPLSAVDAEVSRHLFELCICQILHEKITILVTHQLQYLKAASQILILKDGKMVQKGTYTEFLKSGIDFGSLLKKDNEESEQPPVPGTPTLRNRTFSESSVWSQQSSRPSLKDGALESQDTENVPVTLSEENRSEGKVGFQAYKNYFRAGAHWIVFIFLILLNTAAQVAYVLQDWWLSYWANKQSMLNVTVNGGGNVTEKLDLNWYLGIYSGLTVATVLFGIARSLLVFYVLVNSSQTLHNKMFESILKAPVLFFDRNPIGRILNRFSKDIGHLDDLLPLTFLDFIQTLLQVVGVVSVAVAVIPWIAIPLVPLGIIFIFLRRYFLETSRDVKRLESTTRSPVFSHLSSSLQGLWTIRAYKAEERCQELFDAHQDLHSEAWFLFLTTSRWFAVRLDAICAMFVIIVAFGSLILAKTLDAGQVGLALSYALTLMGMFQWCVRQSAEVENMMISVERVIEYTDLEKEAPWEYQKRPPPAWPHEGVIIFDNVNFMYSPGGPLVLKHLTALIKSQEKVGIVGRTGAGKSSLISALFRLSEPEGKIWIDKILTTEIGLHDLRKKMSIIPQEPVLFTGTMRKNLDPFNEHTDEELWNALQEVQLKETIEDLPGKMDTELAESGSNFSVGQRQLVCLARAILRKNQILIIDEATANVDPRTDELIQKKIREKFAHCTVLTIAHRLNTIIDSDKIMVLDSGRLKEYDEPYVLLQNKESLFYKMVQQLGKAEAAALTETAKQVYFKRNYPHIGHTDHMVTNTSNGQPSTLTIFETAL

[4] = test system: Jejunum; assay: Drug transport across apical to basolateral side in Abcc3/Abcc4-deficient mouse jejunal tissue explants at 50 uM by ussing chamber analysis; type: ADME
[5] = test system: Jejunum; assay: Drug transport across ligated jejunum in wild type mouse assessed as drug level in portal blood at 5 uM by liquid scintillation counting analysis; type: ADME, tissue-based; details: TDE = time-dependent effect
[6] = test system: Jejunum; assay: Drug transport across ligated jejunum in Abcc3-deficient mouse assessed as drug level in portal blood at 5 uM by liquid scintillation counting analysis; type: ADME, tissue-based
[7] = test system: Jejunum; assay: Drug transport across ligated jejunum in Abcc4-deficient mouse assessed as drug level in portal blood at 5 uM by liquid scintillation counting analysis; type: ADME, tissue-based
[8] = test system: Jejunum; assay: Drug transport across ligated jejunum in Abcc3/Abcc4-deficient mouse assessed as drug level in portal blood at 5 uM by liquid scintillation counting analysis; type: ADME, tissue-based
[9] = test system: Jejunum; assay: Drug transport across ligated jejunum in Abcc3/Abcc4-deficient mouse assessed as drug level in peripheral blood at 5 uM by liquid scintillation counting analysis; type: ADME, tissue-based; details: other
[10] = test system: Jejunum; assay: Drug transport across ligated jejunum in wild type mouse assessed as drug level in peripheral blood at 5 uM by liquid scintillation counting analysis; type: ADME, tissue-based; details: other
[11] = Drug uptake in bile of Abcc3/Abcc4-deficient mouse at 5 uM by liquid scintillation counting analysis; type: ADME, tissue-based; details: in vivo
[12] = test system: Intestine; assay: Drug level in Abcc3-deficient mouse intestine at 5 uM by liquid scintillation counting analysis; type: ADME, tissue-based; details: in vivo
[13] = Ratio of recombinant human ABCC4-mediated drug uptake in insect Sf21 cell plasma membrane vesicles to recombinant human ABCC2-mediated drug uptake in insect Sf21 cell plasma membrane vesicles; type: ADME, cell membranes
[14] = Ratio of recombinant human ABCC4-mediated drug uptake in insect Sf21 cell plasma membrane vesicles to recombinant human ABCC3-mediated drug uptake in insect Sf21 cell plasma membrane vesicles; type: ADME, cell membranes
[15] = molecular target: Multidrug resistance-associated protein 1 (Homo sapiens, UniProt P33527); assay: Activity of recombinant human ABCC1 expressed in baculovirus infected insect Sf21 cell plasma membrane vesicles assessed as transporter-mediated drug uptake at 10 uM by liquid scintillation counting analysis in presence of ATP; type: ADME; details: sf21, 10 µM, TDE = time-dependent effect
[16] = molecular target: T1, ATP-binding cassette sub-family C member 3; assay: Activity of recombinant human ABCC3 expressed in baculovirus infected insect Sf21 cell plasma membrane vesicles assessed as transporter-mediated drug uptake at 10 uM by liquid scintillation counting analysis in presence of ATP; type: ADME; details: sf21, 10 µM, TDE = time-dependent effect
[17] = molecular target: T2, ATP-binding cassette sub-family C member 4; assay: Activity of recombinant human ABCC4 expressed in baculovirus infected insect Sf21 cell plasma membrane vesicles assessed as transporter-mediated drug uptake at 10 uM by liquid scintillation counting analysis in presence of ATP; type: ADME; details: sf21, 10 µM, TDE = time-dependent effect
[18] = test system: Jejunum; assay: Drug transport across apical to basolateral side in Abcc4-deficient mouse jejunal tissue explants at 50 uM by ussing chamber analysis; type: ADME
[19] = test system: Jejunum; assay: Drug transport across apical to basolateral side in Abcc4-deficient mouse jejunal tissue explants at 5 uM by ussing chamber analysis relative to wild type mouse; type: ADME
[20] = test system: Jejunum; assay: Drug transport across apical to basolateral side in Abcc3/Abcc4-deficient mouse jejunal tissue explants at 5 uM by ussing chamber analysis relative to wild type mouse; type: ADME
[21] = test system: Intestine; assay: Drug level in Abcc4-deficient mouse intestine at 5 uM by liquid scintillation counting analysis; type: ADME, tissue-based; details: in vivo
[22] = test system: Intestine; assay: Drug level in Abcc3/Abcc4-deficient mouse intestine at 5 uM by liquid scintillation counting analysis; type: ADME, tissue-based; details: in vivo
[23] = test system: Intestine; assay: Drug level in wild type mouse intestine at 5 uM by liquid scintillation counting analysis; type: ADME, tissue-based; details: in vivo
[24] = test system: Kidney; assay: Drug level in Abcc3-deficient mouse kidney at 5 uM by liquid scintillation counting analysis; type: ADME, tissue-based; details: in vivo
[25] = test system: Kidney; assay: Drug level in Abcc4-deficient mouse kidney at 5 uM by liquid scintillation counting analysis; type: ADME, tissue-based; details: in vivo
[26] = test system: Kidney; assay: Drug level in Abcc3/Abcc4-deficient mouse kidney at 5 uM by liquid scintillation counting analysis; type: ADME, tissue-based; details: in vivo
[27] = test system: Kidney; assay: Drug level in wild type mouse kidney at 5 uM by liquid scintillation counting analysis; type: ADME, tissue-based; details: in vivo
[28] = test system: Liver; assay: Drug level in Abcc3-deficient mouse liver at 5 uM by liquid scintillation counting analysis; type: ADME, tissue-based; details: in vivo
[29] = test system: Liver; assay: Drug level in Abcc4-deficient mouse liver at 5 uM by liquid scintillation counting analysis; type: ADME, tissue-based; details: in vivo
[30] = test system: Liver; assay: Drug level in Abcc3/Abcc4-deficient mouse liver at 5 uM by liquid scintillation counting analysis; type: ADME, tissue-based; details: in vivo
[31] = test system: Liver; assay: Drug level in wild type mouse liver at 5 uM by liquid scintillation counting analysis; type: ADME, tissue-based; details: in vivo
[32] = Drug excretion in Abcc3-deficient mouse urine at 5 uM by liquid scintillation counting analysis; type: ADME, tissue-based; details: in vivo
[33] = Drug excretion in Abcc4-deficient mouse urine at 5 uM by liquid scintillation counting analysis; type: ADME, tissue-based; details: in vivo
[34] = Drug excretion in Abcc3/Abcc4-deficient mouse urine at 5 uM by liquid scintillation counting analysis; type: ADME, tissue-based; details: in vivo
[35] = Drug excretion in wild type mouse urine at 5 uM by liquid scintillation counting analysis; type: ADME, tissue-based; details: in vivo

Sequence of ATP-binding cassette sub-family C member 2 (Q92887 whole entry): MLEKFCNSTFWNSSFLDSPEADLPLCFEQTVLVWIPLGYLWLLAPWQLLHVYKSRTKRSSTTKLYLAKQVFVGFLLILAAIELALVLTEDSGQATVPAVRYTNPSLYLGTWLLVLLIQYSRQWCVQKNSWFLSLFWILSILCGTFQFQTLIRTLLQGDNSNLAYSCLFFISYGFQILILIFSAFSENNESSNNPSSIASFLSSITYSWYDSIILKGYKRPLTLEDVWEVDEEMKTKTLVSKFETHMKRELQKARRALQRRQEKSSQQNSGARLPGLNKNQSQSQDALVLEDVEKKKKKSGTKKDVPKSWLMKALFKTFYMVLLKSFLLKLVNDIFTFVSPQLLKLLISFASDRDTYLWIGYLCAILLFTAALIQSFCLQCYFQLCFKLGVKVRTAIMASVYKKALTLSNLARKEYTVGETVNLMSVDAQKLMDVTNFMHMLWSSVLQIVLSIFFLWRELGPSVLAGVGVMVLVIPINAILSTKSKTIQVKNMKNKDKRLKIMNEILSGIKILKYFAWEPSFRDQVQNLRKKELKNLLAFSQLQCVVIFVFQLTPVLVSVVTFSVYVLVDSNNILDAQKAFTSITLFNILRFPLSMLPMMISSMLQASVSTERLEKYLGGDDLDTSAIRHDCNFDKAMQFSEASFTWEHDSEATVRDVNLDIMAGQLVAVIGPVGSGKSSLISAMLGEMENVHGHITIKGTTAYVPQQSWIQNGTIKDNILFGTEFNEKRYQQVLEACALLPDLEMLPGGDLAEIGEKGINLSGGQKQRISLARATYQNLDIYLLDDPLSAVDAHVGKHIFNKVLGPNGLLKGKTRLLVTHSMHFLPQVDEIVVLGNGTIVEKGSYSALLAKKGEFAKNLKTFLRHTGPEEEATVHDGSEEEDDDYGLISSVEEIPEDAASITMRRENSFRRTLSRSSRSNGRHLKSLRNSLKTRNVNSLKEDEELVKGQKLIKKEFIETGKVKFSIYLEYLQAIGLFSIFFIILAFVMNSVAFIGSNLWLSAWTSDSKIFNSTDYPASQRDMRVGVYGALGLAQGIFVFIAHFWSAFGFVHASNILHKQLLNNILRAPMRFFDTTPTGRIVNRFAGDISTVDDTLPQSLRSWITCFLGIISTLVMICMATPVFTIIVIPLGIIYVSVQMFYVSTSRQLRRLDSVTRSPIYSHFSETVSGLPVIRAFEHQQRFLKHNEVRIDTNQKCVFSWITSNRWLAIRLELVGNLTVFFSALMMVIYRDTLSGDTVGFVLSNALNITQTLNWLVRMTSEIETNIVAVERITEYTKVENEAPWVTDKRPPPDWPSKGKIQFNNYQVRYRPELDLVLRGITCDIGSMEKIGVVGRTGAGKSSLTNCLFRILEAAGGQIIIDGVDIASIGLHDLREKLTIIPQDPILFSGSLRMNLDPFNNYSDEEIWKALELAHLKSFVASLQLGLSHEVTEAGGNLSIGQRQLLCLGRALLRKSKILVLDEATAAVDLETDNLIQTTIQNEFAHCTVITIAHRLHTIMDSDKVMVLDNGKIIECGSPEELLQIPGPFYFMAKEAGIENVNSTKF
T1 sequence (O15438 whole entry): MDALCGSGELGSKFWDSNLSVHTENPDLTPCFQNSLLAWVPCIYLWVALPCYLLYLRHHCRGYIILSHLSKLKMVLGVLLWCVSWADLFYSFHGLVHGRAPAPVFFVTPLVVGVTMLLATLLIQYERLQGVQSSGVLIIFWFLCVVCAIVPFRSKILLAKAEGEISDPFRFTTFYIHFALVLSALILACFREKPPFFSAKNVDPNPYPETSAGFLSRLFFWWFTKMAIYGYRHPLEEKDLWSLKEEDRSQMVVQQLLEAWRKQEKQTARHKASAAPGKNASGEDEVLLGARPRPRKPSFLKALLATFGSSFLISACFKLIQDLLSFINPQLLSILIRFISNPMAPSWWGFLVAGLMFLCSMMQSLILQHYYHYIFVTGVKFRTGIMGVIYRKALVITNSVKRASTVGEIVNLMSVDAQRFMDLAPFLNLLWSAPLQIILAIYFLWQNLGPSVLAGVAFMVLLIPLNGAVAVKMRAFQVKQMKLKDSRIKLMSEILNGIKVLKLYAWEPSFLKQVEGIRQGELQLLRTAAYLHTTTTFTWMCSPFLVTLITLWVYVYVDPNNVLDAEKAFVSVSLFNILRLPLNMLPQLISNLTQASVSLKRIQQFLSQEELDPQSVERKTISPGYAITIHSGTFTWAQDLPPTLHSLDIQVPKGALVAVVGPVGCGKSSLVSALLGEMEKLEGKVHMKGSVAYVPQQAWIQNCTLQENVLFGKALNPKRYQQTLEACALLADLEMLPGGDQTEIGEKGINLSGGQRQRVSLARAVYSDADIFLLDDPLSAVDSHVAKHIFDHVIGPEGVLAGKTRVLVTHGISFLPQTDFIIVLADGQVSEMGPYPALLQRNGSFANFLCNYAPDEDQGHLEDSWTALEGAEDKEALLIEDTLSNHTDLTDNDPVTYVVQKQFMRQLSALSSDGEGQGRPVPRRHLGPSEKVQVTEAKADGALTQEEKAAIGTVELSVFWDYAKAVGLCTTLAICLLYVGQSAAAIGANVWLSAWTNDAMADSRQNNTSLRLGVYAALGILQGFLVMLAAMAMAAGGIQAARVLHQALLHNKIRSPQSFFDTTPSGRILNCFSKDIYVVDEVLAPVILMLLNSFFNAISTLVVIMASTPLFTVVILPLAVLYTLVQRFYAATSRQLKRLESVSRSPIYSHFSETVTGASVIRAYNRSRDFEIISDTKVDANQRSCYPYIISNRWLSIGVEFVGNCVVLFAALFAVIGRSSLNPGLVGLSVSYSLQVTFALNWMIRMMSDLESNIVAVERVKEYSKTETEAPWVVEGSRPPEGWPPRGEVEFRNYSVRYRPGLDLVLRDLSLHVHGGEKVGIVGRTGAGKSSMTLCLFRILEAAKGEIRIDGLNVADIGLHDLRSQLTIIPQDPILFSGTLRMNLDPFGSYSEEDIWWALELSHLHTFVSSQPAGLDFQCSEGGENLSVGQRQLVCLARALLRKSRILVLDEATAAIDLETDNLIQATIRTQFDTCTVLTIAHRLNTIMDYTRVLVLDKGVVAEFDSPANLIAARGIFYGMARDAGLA
Sequence of Multidrug resistance-associated protein 1 (P33527 whole entry): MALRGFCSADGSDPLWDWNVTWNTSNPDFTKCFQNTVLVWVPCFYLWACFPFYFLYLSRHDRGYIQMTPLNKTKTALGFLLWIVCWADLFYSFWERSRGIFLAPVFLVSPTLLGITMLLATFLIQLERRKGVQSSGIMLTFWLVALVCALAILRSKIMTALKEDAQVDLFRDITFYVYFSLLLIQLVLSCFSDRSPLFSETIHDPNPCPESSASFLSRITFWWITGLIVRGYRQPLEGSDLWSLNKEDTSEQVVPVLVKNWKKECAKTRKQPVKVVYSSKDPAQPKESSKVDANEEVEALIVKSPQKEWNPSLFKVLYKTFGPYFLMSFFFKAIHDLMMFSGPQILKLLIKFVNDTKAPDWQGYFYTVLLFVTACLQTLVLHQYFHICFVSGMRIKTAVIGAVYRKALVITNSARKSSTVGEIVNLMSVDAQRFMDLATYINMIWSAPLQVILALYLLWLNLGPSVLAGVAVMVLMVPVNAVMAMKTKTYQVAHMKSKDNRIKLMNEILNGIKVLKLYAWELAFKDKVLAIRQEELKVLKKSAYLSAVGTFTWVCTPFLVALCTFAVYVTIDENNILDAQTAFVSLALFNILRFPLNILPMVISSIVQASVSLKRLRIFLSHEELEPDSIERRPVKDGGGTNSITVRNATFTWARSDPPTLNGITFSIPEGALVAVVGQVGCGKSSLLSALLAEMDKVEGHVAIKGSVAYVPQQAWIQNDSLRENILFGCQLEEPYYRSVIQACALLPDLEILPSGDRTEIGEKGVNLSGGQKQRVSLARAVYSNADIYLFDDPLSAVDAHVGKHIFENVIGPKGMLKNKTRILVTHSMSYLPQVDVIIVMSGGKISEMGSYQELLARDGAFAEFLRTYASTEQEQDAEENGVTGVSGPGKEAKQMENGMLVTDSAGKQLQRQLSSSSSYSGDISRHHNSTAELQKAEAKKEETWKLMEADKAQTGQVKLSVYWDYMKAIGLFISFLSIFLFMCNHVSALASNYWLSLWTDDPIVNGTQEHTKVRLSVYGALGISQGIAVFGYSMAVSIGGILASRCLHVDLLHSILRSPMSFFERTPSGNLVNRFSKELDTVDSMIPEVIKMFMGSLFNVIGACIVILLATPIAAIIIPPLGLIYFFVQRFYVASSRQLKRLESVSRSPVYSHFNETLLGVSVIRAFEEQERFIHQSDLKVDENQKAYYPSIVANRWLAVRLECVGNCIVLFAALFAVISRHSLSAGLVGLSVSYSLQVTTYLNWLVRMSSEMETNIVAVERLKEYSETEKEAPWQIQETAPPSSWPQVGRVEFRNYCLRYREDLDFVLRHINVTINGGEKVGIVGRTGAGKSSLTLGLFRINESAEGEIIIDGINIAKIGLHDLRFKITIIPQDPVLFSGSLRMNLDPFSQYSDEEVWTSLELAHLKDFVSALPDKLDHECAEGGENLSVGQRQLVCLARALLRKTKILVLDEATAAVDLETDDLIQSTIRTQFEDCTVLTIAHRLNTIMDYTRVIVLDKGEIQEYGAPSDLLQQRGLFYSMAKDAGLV

- inhibition (INH) [1]: Active
- inhibition (INH) [2]: Active
- inhibition (INH) [3]: Active
Compound: N[C@@H](C(=O)N[C@@H]1C(=O)N2C(C(=O)O)=C(Cl)CS[C@H]12)c1ccccc1 [CEFACLOR ANHYDROUS]

- Drug transport [4]: Active
- Drug transport [5]: tde
- Drug transport [6]: Active
- Drug transport [7]: Active
- Drug transport [8]: Not Active
- Drug transport [9]: Not Active
- Drug transport [10]: Active
- Drug uptake [11]: < 0.4%
- Drug uptake [12]: Active
- Ratio [13]: 3
- Ratio [14]: 6
- Activity [15]: tde
- Activity [16]: tde
- Activity [17]: tde
- Drug transport [18]: Active
- Drug transport [19]: 50%
- Drug transport [20]: 50%
- Drug uptake [21]: Active
- Drug uptake [22]: Active
- Drug uptake [23]: Active
- Drug uptake [24]: Active
- Drug uptake [25]: Active
- Drug uptake [26]: Active
- Drug uptake [27]: Active
- Drug uptake [28]: Active
- Drug uptake [29]: Active
- Drug uptake [30]: Active
- Drug uptake [31]: Active
- Drug excretion [32]: metabolite_detected
- Drug excretion [33]: metabolite_detected
- Drug excretion [34]: metabolite_detected
- Drug excretion [35]: metabolite_detected
Compound: CC1=C(C(=O)O)N2C(=O)[C@@H](NC(=O)[C@H](N)c3ccc(O)cc3)[C@H]2SC1 [CEFADROXIL]

- inhibition (INH) [1]: Active
- inhibition (INH) [2]: Active
- inhibition (INH) [3]: Active
Compound: CC1=C(C(=O)O)N2C(=O)[C@@H](NC(=O)[C@H](N)c3ccccc3)[C@H]2SC1 [CEPHALEXIN ANHYDROUS]

- inhibition (INH) [1]: Active
- inhibition (INH) [2]: Active
- inhibition (INH) [3]: Active
Compound: CCN1CCN(C(=O)N[C@@H](C(=O)N[C@@H]2C(=O)N3C(C(=O)O)=C(CSc4nnnn4C)CS[C@H]23)c2ccc(O)cc2)C(=O)C1=O [CEFOPERAZONE]

- inhibition (INH) [1]: Active
- inhibition (INH) [2]: Active
- inhibition (INH) [3]: Active
Compound: CC1=C(C(=O)O)N2C(=O)[C@@H](NC(=O)[C@H](N)C3=CCC=CC3)[C@H]2SC1 [CEPHRADINE]

- inhibition (INH) [1]: Active
- inhibition (INH) [2]: Active
- inhibition (INH) [3]: Active
Compound: CO[C@@]1(NC(=O)Cc2cccs2)C(=O)N2C(C(=O)O)=C(COC(N)=O)CS[C@@H]21 [CEFOXITIN]

- inhibition (INH) [1]: Active
- inhibition (INH) [2]: Active
- inhibition (INH) [3]: Active
Compound: CO[C@@]1(NC(=O)CSCC#N)C(=O)N2C(C(=O)O)=C(CSc3nnnn3C)CS[C@@H]21 [CEFMETAZOLE]

- inhibition (INH) [1]: Active
- inhibition (INH) [2]: Active
- inhibition (INH) [3]: Active
Compound: Cn1nnnc1SCC1=C(C(=O)O)N2C(=O)[C@@H](NC(=O)[C@H](O)c3ccccc3)[C@H]2SC1 [CEFAMANDOLE]

- inhibition (INH) [1]: Active
- inhibition (INH) [2]: Active
- inhibition (INH) [3]: Active
Compound: CO/N=C(\C(=O)N[C@@H]1C(=O)N2C(C(=O)O)=C(COC(N)=O)CS[C@H]12)c1ccco1 [CEFUROXIME]

- inhibition (INH) [1]: Active
- inhibition (INH) [2]: Active
- inhibition (INH) [3]: Active
Compound: CO/N=C(\C(=O)N[C@@H]1C(=O)N2C(C(=O)O)=C(CSc3nc(=O)c(=O)[nH]n3C)CS[C@H]12)c1csc(N)n1 [CEFTRIAXONE]
